Assay results as given in ChEMBL document CHEMBL1909046, “DrugMatrix in vitro pharmacology data”.

Key:
Substance-K receptor = biological target: T1, Substance-K receptor (Homo sapiens, UniProt P21452); type: cell membranes, CHO, Membrane; conditions: cho; also: in other assays of this panel Not Active means under 50% inhibition at 10 µM
T1 sequence (P21452 whole entry): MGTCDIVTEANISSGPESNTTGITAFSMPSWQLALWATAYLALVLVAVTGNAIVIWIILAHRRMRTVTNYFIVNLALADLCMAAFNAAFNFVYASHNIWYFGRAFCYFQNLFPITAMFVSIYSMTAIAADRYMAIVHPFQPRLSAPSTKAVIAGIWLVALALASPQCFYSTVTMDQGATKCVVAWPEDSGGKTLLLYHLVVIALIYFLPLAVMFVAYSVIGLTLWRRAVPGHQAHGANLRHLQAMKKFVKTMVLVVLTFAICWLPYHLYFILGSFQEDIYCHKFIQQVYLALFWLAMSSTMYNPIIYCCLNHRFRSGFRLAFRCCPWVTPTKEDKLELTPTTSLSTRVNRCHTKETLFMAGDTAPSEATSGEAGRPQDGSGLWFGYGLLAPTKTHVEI

[1] = biological target: T2, Alpha-2A adrenergic receptor (Homo sapiens, UniProt P08913); type: cell membranes, Sf9, Membrane; conditions: sf9; also: in other assays of this panel Not Active means under 50% inhibition at 10 µM
T2 sequence (P08913 whole entry): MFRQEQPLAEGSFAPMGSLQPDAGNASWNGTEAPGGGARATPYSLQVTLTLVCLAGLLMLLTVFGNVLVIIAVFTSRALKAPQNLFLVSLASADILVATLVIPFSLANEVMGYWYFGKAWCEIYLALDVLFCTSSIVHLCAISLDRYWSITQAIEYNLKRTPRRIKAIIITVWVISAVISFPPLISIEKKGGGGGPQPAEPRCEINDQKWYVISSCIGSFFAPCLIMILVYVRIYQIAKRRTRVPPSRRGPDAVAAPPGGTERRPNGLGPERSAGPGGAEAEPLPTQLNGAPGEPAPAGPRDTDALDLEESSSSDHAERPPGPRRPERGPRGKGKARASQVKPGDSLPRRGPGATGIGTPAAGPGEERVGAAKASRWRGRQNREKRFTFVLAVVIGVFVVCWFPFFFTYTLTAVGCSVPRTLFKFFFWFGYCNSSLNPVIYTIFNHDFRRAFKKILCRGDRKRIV

[2] = biological target: C-C chemokine receptor type 2 (Homo sapiens, UniProt P41597); type: cell membranes, CHO-K1, Membrane; conditions: cho-k1; also: in other assays of this panel Not Active means under 50% inhibition at 10 µM
Chain of C-C chemokine receptor type 2 (P41597 whole entry): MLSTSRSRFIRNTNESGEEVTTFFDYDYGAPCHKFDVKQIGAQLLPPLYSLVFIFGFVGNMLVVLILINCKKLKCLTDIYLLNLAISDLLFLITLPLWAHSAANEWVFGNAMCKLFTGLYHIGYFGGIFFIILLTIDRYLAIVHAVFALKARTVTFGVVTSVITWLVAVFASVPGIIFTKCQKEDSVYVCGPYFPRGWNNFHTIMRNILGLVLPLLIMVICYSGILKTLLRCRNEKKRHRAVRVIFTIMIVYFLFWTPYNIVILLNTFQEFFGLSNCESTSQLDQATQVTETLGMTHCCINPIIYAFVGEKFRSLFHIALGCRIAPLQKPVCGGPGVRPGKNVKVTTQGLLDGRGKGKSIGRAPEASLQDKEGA

[3] = DRUGMATRIX: Atrial Natriuretic Factor (ANF) radioligand binding (ligand: [125I] ANF (rat)); type: cell membranes, Cavia porcellus, Dunkin-Hartley, Adrenal gland, Membrane; conditions: Not Active = under 50% inhibition at 10 µM
[4] = DRUGMATRIX: Calcium Channel Type L, Dihydropyridine radioligand binding (ligand: [3H] Nitrendipine); type: cell membranes, Rattus norvegicus, Wistar, Cerebral cortex, Membrane; conditions: Not Active = under 50% inhibition at 10 µM
[5] = DRUGMATRIX: beta-Lactamase enzyme inhibition (substrate: Nitrocefin); design: species or system Bacillus cereus; conditions: Not Active = under 50% inhibition at 10 µM

C=C(CC)C(=O)c1ccc(OCC(=O)O)c(Cl)c1Cl [ETHACRYNIC ACID]
Not Active: IC50 (Substance-K receptor) | IC50 [1] | IC50 [2] | IC50 [3] | Ki [3] | IC50 [4] | Ki [4] | IC50 [5] | Ki [5]

CC(C(=O)O)c1ccc(-c2ccccc2)c(F)c1 (configuration not stated) [FLURBIPROFEN]
Not Active: IC50 (Substance-K receptor) | IC50 [1] | IC50 [2] | IC50 [3] | Ki [3] | IC50 [4] | Ki [4] | IC50 [5] | Ki [5]

COc1ccccc1OCC(O)COC(N)=O (configuration not stated) [METHOCARBAMOL]
Not Active: IC50 (Substance-K receptor) | IC50 [1] | IC50 [2] | IC50 [3] | Ki [3] | IC50 [4] | Ki [4] | IC50 [5] | Ki [5]

CC(C(=O)O)c1ccc(CC2CCCC2=O)cc1 (configuration not stated) [LOXOPROFEN]
Not Active: IC50 (Substance-K receptor) | IC50 [1] | IC50 [2] | IC50 [3] | Ki [3] | IC50 [4] | Ki [4] | IC50 [5] | Ki [5]

CCCCC1C(=O)N(c2ccccc2)N(c2ccccc2)C1=O [PHENYLBUTAZONE]
Not Active: IC50 (Substance-K receptor) | IC50 [1] | IC50 [2] | IC50 [3] | Ki [3] | IC50 [4] | Ki [4] | IC50 [5] | Ki [5]

CCN[C@@H](C)Cc1cccc(C(F)(F)F)c1 [DEXFENFLURAMINE]
Not Active: IC50 (Substance-K receptor) | IC50 [1] | IC50 [2] | IC50 [3] | Ki [3] | IC50 [4] | Ki [4] | IC50 [5] | Ki [5]

COc1ccccc1OCC(O)CO (configuration not stated) [GUAIFENESIN]
Not Active: IC50 (Substance-K receptor) | IC50 [1] | IC50 [2] | IC50 [3] | Ki [3] | IC50 [4] | Ki [4] | IC50 [5] | Ki [5]

CCC(=O)O[C@H]1[C@H](O[C@@H]2[C@@H](C)[C@H](O[C@H]3C[C@@](C)(OC)[C@@H](O)[C@H](C)O3)[C@@H](C)C(=O)O[C@H](CC)[C@@](C)(O)[C@H](O)[C@@H](C)C(=O)[C@H](C)C[C@@]2(C)O)O[C@H](C)C[C@@H]1N(C)C [ERYTHROMYCIN PROPIONATE]
Not Active: IC50 (Substance-K receptor) | IC50 [1] | IC50 [2] | IC50 [3] | Ki [3] | IC50 [4] | Ki [4] | IC50 [5] | Ki [5]

C=C1/C(=C\C=C2/CCC[C@]3(C)[C@@H]([C@H](C)CCCC(C)C)CC[C@@H]23)C[C@@H](O)C[C@@H]1O [ALFACALCIDOL]
Not Active: IC50 (Substance-K receptor) | IC50 [1] | IC50 [2] | IC50 [3] | Ki [3] | IC50 [4] | Ki [4] | IC50 [5] | Ki [5]

CS(=O)(=O)OCCCCOS(C)(=O)=O [BUSULFAN]
Not Active: IC50 (Substance-K receptor) | IC50 [1] | IC50 [2] | IC50 [3] | Ki [3] | IC50 [4] | Ki [4] | IC50 [5] | Ki [5]

C[C@]12CCC(=O)C=C1CC[C@@H]1[C@@H]2[C@@H](O)C[C@@]2(C)[C@H]1CC[C@]2(O)C(=O)CO [HYDROCORTISONE]
Not Active: IC50 (Substance-K receptor) | IC50 [1] | IC50 [2] | IC50 [3] | Ki [3] | IC50 [4] | Ki [4] | IC50 [5] | Ki [5]

POLYVINYL ALCOHOL
Not Active: IC50 (Substance-K receptor) | Ki (Substance-K receptor) | IC50 [1] | Ki [1] | IC50 [2] | Ki [2] | IC50 [3] | Ki [3] | IC50 [4] | Ki [4] | IC50 [5] | Ki [5]

COBALT(II) ACETYLACETONATE
Not Active: IC50 (Substance-K receptor) | Ki (Substance-K receptor) | IC50 [1] | Ki [1] | IC50 [2] | Ki [2] | IC50 [3] | Ki [3] | IC50 [4] | Ki [4] | IC50 [5] | Ki [5]

Nc1nc(N)nc(NC2CC2)n1 [CYROMAZINE]
Not Active: IC50 (Substance-K receptor) | IC50 [1] | IC50 [2] | IC50 [3] | Ki [3] | IC50 [4] | Ki [4] | IC50 [5] | Ki [5]

CN(C(=O)CCCOc1ccc2[nH]c(=O)ccc2c1)C1CCCCC1 [CILOSTAMIDE]
Not Active: IC50 (Substance-K receptor) | IC50 [1] | IC50 [2] | IC50 [3] | Ki [3] | IC50 [4] | Ki [4] | IC50 [5] | Ki [5]

CC(C)(Oc1ccc(C2CC2(Cl)Cl)cc1)C(=O)O (configuration not stated) [CIPROFIBRATE]
Not Active: IC50 (Substance-K receptor) | IC50 [1] | IC50 [2] | IC50 [3] | Ki [3] | IC50 [4] | Ki [4] | IC50 [5] | Ki [5]

Cc1cn[nH]c1 [FOMEPIZOLE]
Not Active: IC50 (Substance-K receptor) | IC50 [1] | IC50 [2] | IC50 [3] | Ki [3] | IC50 [4] | Ki [4] | IC50 [5] | Ki [5]

CCc1oc2ccccc2c1C(=O)c1cc(Br)c(O)c(Br)c1 [BENZBROMARONE]
Not Active: IC50 (Substance-K receptor) | IC50 [1] | IC50 [2] | IC50 [3] | Ki [3] | IC50 [4] | Ki [4] | IC50 [5] | Ki [5]

CN1C[C@H](C(=O)N[C@]2(C)O[C@@]3(O)[C@@H]4CCCN4C(=O)[C@H](Cc4ccccc4)N3C2=O)C[C@@H]2c3cccc4[nH]cc(c34)C[C@H]21 [DIHYDROERGOTAMINE]
Not Active: IC50 (Substance-K receptor) | IC50 [2] | IC50 [3] | Ki [3] | IC50 [4] | Ki [4] | IC50 [5] | Ki [5]

CNC(=C[N+](=O)[O-])NCCSCc1csc(CN(C)C)n1 [NIZATIDINE]
Not Active: IC50 (Substance-K receptor) | IC50 [1] | IC50 [2] | IC50 [3] | Ki [3] | IC50 [4] | Ki [4] | IC50 [5] | Ki [5]

CCC[C@@H]1C[C@@H](C(=O)N[C@@H]([C@H]2O[C@H](SC)[C@H](O)[C@@H](O)[C@H]2O)[C@H](C)Cl)N(C)C1 [CLINDAMYCIN]
Not Active: IC50 (Substance-K receptor) | IC50 [1] | IC50 [2] | IC50 [3] | Ki [3] | IC50 [4] | Ki [4] | IC50 [5] | Ki [5]

CC(=O)O[C@]1(C(C)=O)CC[C@H]2[C@@H]3C=C(Cl)C4=CC(=O)[C@@H]5C[C@@H]5[C@]4(C)[C@H]3CC[C@@]21C [CYPROTERONE ACETATE]
Not Active: IC50 (Substance-K receptor) | IC50 [1] | IC50 [2] | IC50 [3] | Ki [3] | IC50 [4] | Ki [4] | IC50 [5] | Ki [5]

CN(Cc1cnc2nc(N)nc(N)c2n1)c1ccc(C(=O)N[C@@H](CCC(=O)O)C(=O)O)cc1 [METHOTREXATE]
Not Active: IC50 (Substance-K receptor) | IC50 [1] | IC50 [2] | IC50 [3] | Ki [3] | IC50 [4] | Ki [4] | IC50 [5] | Ki [5]

C/C=C\c1ccc(O)c(OC)c1 [ISOEUGENOL]
Not Active: IC50 (Substance-K receptor) | IC50 [1] | IC50 [2] | IC50 [3] | Ki [3] | IC50 [4] | Ki [4] | IC50 [5] | Ki [5]

N=C(N)N/N=C/c1c(Cl)cccc1Cl [GUANABENZ]
Not Active: IC50 (Substance-K receptor) | IC50 [2] | IC50 [3] | Ki [3] | IC50 [4] | Ki [4] | IC50 [5] | Ki [5]

CC(C)C[C@H]1C(=O)N2CCC[C@H]2[C@]2(O)O[C@](NC(=O)[C@@H]3C=C4c5cccc6[nH]c(Br)c(c56)C[C@H]4N(C)C3)(C(C)C)C(=O)N12 [BROMOCRIPTINE]
Not Active: IC50 (Substance-K receptor) | IC50 [2] | IC50 [3] | Ki [3] | IC50 [4] | Ki [4] | IC50 [5] | Ki [5]
